Where a name gives a salt, the structure may show the parent alone.

The record followed here is patent publication US10945972B2, “Particulate materials” (Nektar Therapeutics, priority 2002, dated 2021).

Data set [1] can be described thus: Aerosol analysis at 60 LPM, Turbospin (Example 11). On the procedure:
The aerosol performance of a SEDS™ processed sample of bromocriptine mesylate was assessed in a unit-dose passive inhaler device (Turbospin PH & T (Italy)), at a peak inspiratory flow rate (PFIR) of 28.3 LPM and 60 LPM.

Data set [2] in a line: Particle size by Helos/Rodos laser diffraction (Example 1). Conditions: geometric projection-equivalent volume mean diameter. In kind it is physicochemical. On the procedure: (§1) PSD measurements were performed using firstly, AEROSIZER® time-of-flight instrument equipped with AERO-[…]® (TSI Inc., Minneapolis. USA) and secondly, laser diffraction sensor Helos with dry-powder air-dispersion system Rodos (Sympatec GmbH. Germany). The volume mean particle diameter, VMD, was obtained for both instruments using software options. In the general case of non-spherical particles, these instruments cannot provide the exact value of VMD, however, the time-of-flight technique gives an aerodynamic-equivalent particle diameter, whereas the laser diffraction method provides the geometric projection-equivalent diameter. These diameters afford the complementary information on PSD and therefore can be used for comparative size analysis.

Data set [3] is described as follows: BET nitrogen adsorption specific surface area (Example 2). It counts as physicochemical. Conditions: listed as S-SX. As for the experimental part: Data on specific surface areas required for IGC studies were determined by BET nitrogen adsorption using a Surface Area Analyzer Coulter SA 3100 (Coulter Corp., Miami, Fla., USA). Samples were placed in glass sample holders and out-gassed with helium (purity >99.999%) at 40° C. for 16 hours before analysis. Nitrogen (purity >99.999%) was used as adsorbate and BET surface area was recorded as specific surface area of the samples. All measurements were performed in triplicate using the same batch of each material.

A short description of data set [4]: Inverse gas chromatography surface energy (Example 1). In kind it is physicochemical. The following applies: 303K. An excerpt: For TBS and FHBr powders, IGC was done using a Hewlett Packard Series 6890 instrument which was specifically modified for IGC measurements by Surface Measurement Systems Ltd (Manchester, UK). The IGC method is described in detail by Tong et al. 2001. (Tong H. H. Y., B. Y. Shekunov, P. York, A. H. L. Chow, 2001. Pharm. Res. 18, 852.) Triplicate measurements in separate packed columns were made. […] The γS^D and ΔGA values were obtained at 303K.

Data set [5] is described as follows: Inverse gas chromatography of SX powders (Example 2).
Data set [6] is described as follows: Triboelectrification in turbula mixer, charge and adhesion. In kind it is physicochemical. The following applies: listed as S-SX. On the procedure:
(§2) Triboelectrification was undertaken against a stainless steel contact surface using either a turbula mixer or a cyclone separator. Triboelectrification in a turbula mixer (Glen Creston, UK) was carried out by agitating a powder sample for 5 minutes at 30 rpm in a 100 ml stainless steel vessel at ambient temperature and relative humidity. A sample was poured in a reproducible manner into a Faraday well connected to an electrometer (Keithley 610, Keithley Instruments, Reading, UK). Charge and mass of sample was then recorded to give specific charge before and after triboelectrification. % w/w adhesion to the inner surface of the mixing vessel was calculated from the original mass of sample and the mass of sample poured into the Faraday well. During triboelectrification in a cyclone separator, a powder was fed from a steel vibratory table into a venturi funnel. Compressed air (velocity 8 m/s. relative humidity below 10%, ambient temperature) was used to convey the powder from the venturi along a horizontal pipe into the cyclone separator. The Faraday well and force compensation load cell was fitted at the base of the cyclone and used to collect charged particles. Final specific charge was recorded for non-adhered powder residing in the Faraday well and, where possible, powder adhering to the cyclone wall was dislodged by a stream of air and its charge and mass recorded. In both cases, the results were obtained from triplicate measurements.

The nature of data set [7]: Triboelectrification in cyclone separator, charge and adhesion. It counts as physicochemical. Conditions: listed as S-SX. As for the experimental part: as §2
A short description of data set [8]: Particle size by AeroSizer time-of-flight (Example 1). It counts as physicochemical. The following applies: aerodynamic-equivalent volume mean diameter. On the procedure: as §1
Data set [9] in a line: Bulk powder density (Example 2). In kind it is physicochemical. The following applies: listed as S-SX.
A short description of data set [10]: Laser diffraction particle size analysis HELOS/RODOS (Example 2). It counts as physicochemical. The following applies: listed as S-SX. As for the experimental part:
The instrument consisted of laser diffraction sensor HELOS and dry-powder air-dispersion system RODOS (Sympatec GmbH. Germany) with WINDOX OS computer interface. The dispersion process was controlled by means of adjusting pressure of the compressed air flow between 0.5 and 5 bar. […] All measurements were performed in triplicate. The particle shape factor, f, was calculated as f=Sv/Sv*. where Sv is the experimental specific surface area and Sv* is the specific surface area determined using the LD instrument assuming the particle sphericity.

With `CC(C)C[C@H]1C(=O)N2CCC[C@H]2[C@]2(O)O[C@](NC(=O)[C@@H]3C=C4c5cccc6[nH]c(Br)c(c56)C[C@H]4N(C)C3)(C(C)C)C(=O)N12` [SEDS bromocriptine, bromocriptine mesylate], in [1], the “aerodynamic diameter of aerosol particles” value was 4.2 μm.

Take `OCc1cc(C(O)CNCCCCCCOCCCCc2ccccc2)ccc1O` (stereo not drawn) [SX SEDS, salmeterol xinafoate]: the “VMD (μm) (laser diffraction)” value in [2] is 3.56 μm. Further, in data set [3], the “SV (specific surface area)” value is 7.040. Also, the “γs^D (mJ/m^2)” value is 34.55 mJ/m^2 in data set [4] and 32.476 mJ/m^2 in [5] (column at 40° C., listed as S-SX). Further, the “ΔGA (kJ/mol) Diethyl ether” value in data set [4] (probe diethyl ether) was determined as 12.65 kJ/mol. In addition, the “magnitude of γS^D smaller than for M-SX and G-SX” value in [5] was 15%. In data set [5] (acidity parameter, listed as S-SX), this compound gave a KA of 0.110. For the same compound, the “−ΔGA^SP (kJ/mol) Acetone” value in data set [5] (probe acetone, listed as S-SX) is 3.797 kJ/mol. In addition, the “−ΔGA^SP (kJ/mol) Chloroform” value in data set [5] (probe chloroform, listed as S-SX) was 0.153 kJ/mol. In addition, the “−ΔGA^SP (kJ/mol) Dichloromethane” value in data set [5] (probe dichloromethane) is on record as 2.808 kJ/mol. Further, in data set [5] (probe diethyl ether, listed as S-SX), the “−ΔGA^SP (kJ/mol) Diethyl ether” value stood at 1.488 kJ/mol. In data set [5] (probe ethyl acetate, listed as S-SX), the “−ΔGA^SP (kJ/mol) Ethyl acetate” value is on record as 2.705 kJ/mol. Further, the “−ΔGA^SP (kJ/mol) Tetrahydrofuran” value in data set [5] (probe tetrahydrofuran, listed as S-SX) was 2.446 kJ/mol. Further, the “Q (nCg^−1) After mixing” value is listed as −0.17 nCg^−1 in data set [6] (5 minutes at 30 rpm) and −34.6 nCg^−1 in data set [7]. Also, the “AD (% w/w), fraction of adhered material” value in data set [6] is 1.5 % w/w; in data set [7], 5.5 % w/w. The results for the “Q (nCg^−1) Before mixing” value in data set [6] and in data set [7] were −0.52 nCg^−1 and 4.9 nCg^−1, respectively. Further, the “VMD (μm) (Time of flight)” value in data set [8] is reported as 1.6 μm. Also, the bulk powder density entry in data set [9] is “about 0.1 g/cm^3”. Also, in data set [10] (LD technique), the “mean particle size d4,3” value is listed as 3.5 μm. The “f (particle shape factor, f=Sv/Sv*)” value in data set [10] is reported as 3.78.
